Measured values reported in article PMC5656594 (Scientific Reports, 2017).

Columns and labels:
G187R IN^PFV-DNA complex = molecular target: T1, G187R IN^PFV-DNA complex (Human spumaretrovirus, UniProt P14350, G938R/G968S/S969G); assay: DTG fluorescence anisotropy binding assay, G187R mutant; parameters: species or system prototype foamy virus (PFV); details: 10 mM Mg2+, DTG 0.6 μM, [IN]=[DNA]=2.4 μM
T1 construct: The pET-IN-PFV plasmid containing the full-length IN gene was used for mutagenesis; His; made in house; host or cells: E. coli BL21-CodonPlus (DE3)-RIPL
Method: (§1) The fluorescence intensity was monitored as a function of (IN + DNA) and plotted as a function of the binary IN-DNA complex concentration (measured as explained in Fig. 2E legend). […] (B) The percentage of ternary complexes was calculated using DTG fluorescence enhancement. […] The graphs in panels A-B show representative data of three independent experiments. […] "DTG" is taken from the y-axis title of the same panel.
(§2) To note, Mg^2+ is dispensable for the overall DNA-binding step of IN[32],[43]–[45] and thus, the loss of Mg^2+ chelation is not contradictory with results showing that catalytic mutants bind equally well to DNA and in a similar manner than wt IN (Supplementary Fig. S6). However, G187R cannot be considered as a catalytic mutant since it sustains a significant ST activity although weak (≈10% of the wt activity; Fig. 6).
(§3) Fluorescence excitation and emission spectra of INSTIs were recorded on a Eclipse (Varian) spectrofluorimeter equipped with two polarizers for anisotropy measurements and a thermostated cell holder, using 80 µl solutions placed in micro cells (Hellma). […] The steady-state fluorescence anisotropy was calculated using: r = (IVV–G x IVH)/(IVV + 2GxIVH) where IVV and IVH correspond to vertical and horizontal components, respectively, when the sample is excited with vertically polarized light. […]

[1] = molecular target: T2, PFV IN complexed with various DNA sequences (Human spumaretrovirus, UniProt P14350); assay: DTG binding to IN complexed with various DNA sequences, fluorescence intensity procedure; parameters: species or system prototype foamy virus (PFV); details: for DTG-binding (%) Fluorescence intensity procedure: normalized by DNA#1, [IN]=[DNA]=1.8 μM, [DTG]=0.3 μM, 1 mM Mg2+
T2 construct: The full-length wt IN^PFV, the three single mutants of the catalytic triad; His; made in house; host or cells: E. coli BL21-CodonPlus (DE3)-RIPL
Method: All experiments were performed in the presence of 1 mM Mg^2+ (see Supplementary Fig. S4 for [Mg^2+] = 10 mM). λex = 345 nm and PMT = 980 V (Δλex = Δλem = 5 nm). […] Contributions of Raman and Rayleigh scattering were eliminated in the inset spectrum: (viii) = (iv)–(vii) where (vii) represents the proper spectrum of Mg^2+-DTG in the context of the binary IN-DNA complex. […] [Mg^2+] = 1 mM. Inset: fluorescence intensity (375–385 nm) as a function of (IN + DNA). The arrows indicate the intensity level after addition of 500 mM NaCl. Emission spectra are representative of 3 independent experiments for each condition of (IN + DNA). […] (E) Measurement of the binary IN-DNA complex formation. The formation of binary complexes was performed by monitoring the fluorescence anisotropy (r) of DNA (Fl-PFV^CAAT) under similar experimental conditions of the DTG-binding assay (panels C-D). Top, varying stoichiometric concentrations of IN and DNA were mixed and the r parameter was monitored. A constant concentration of Fl-DNA (0.3 μM) was maintained throughout the titration. […] Bottom, corresponding percentages of binary complexes as a function of (IN + DNA): % = (r–r0)/(rmax–r0)x100 where r0 and rmax correspond to anisotropy values of free DNA and IN-bound DNA, respectively. (F) Linear relationship between the percentages of ternary and binary complexes. […]
Fluorescence excitation and emission spectra of INSTIs were recorded on a Eclipse (Varian) spectrofluorimeter equipped with two polarizers for anisotropy measurements and a thermostated cell holder, using 80 µl solutions placed in micro cells (Hellma). Drug, IN and DNA concentrations, excitation/emission slit settings as well as the photomultiplier tube (PMT) voltage are specified in figure legends. The intensity value was corrected from the inner filter effect. The steady-state fluorescence anisotropy was calculated using: r = (IVV–G x IVH)/(IVV + 2GxIVH) where IVV and IVH correspond to vertical and horizontal components, respectively, when the sample is excited with vertically polarized light. G represents the correction factor for the difference in the monochromator transmission between // and ⊥ polarized components: G = IHV/IHH. All experiments were performed at 25 °C in buffer A: 20 mM Tris pH 7.2, 50 mM NaCl, 1 mM DTT and 10% (v/v) DMSO.

[2] = molecular target: T3, IN^PFV-viral DNA interaction (Human spumaretrovirus, UniProt P14350); assay: IN-viral DNA interaction by steady-state fluorescence anisotropy of Fl-DNA with increasing drug concentrations; type: binding, prototype foamy virus (PFV); details: 400 nM IN^PFV, 4 nM Fl-PFV^CAAT, 10 mM Mg2+, up to 20 µM drug; means INSTI did not prevent IN-DNA interactions
T3 construct: The full-length wt IN^PFV, the three single mutants of the catalytic triad; His; made in house; host or cells: E. coli BL21-CodonPlus (DE3)-RIPL
Method: Their incapability to prevent or disrupt IN-viral DNA complexes was consistently observed over the whole concentration range, regardless of the INSTI tested (Supplementary Fig. S7).
IN^PFV binding to DNA was measured by fluorescence anisotropy on a Beacon Instrument (Panvera, Madison, WI, USA) as previously described[25],[51], using a double-stranded 21-mer Fl-labeled DNA mimicking the PFV U5 LTR end also referred to as DNA#1 in Table 1 (labeled at the 5′-end of the reactive strand). IN binding to Fl-PFV^CAAT (or Fl-DNA#1) was compared to the binding to other DNA sequences (Fl-DNA#8 #9 #13). DNA annealing was obtained by mixing equimolar amounts of complementary strands in buffer A, heating to 85 °C for 5 min and slow cooling to 25 °C. DNA-binding experiments were performed at 25 °C in buffer A.
Figure S7. Differential effect of INSTI and INBI compounds on the INPFV-viral DNA interaction.
The formation of IN-DNA complexes was measured by steady-state fluorescence anisotropy using 400 nM INPFV and 4 nM Fl-PFVCAAT (also named Fl-DNA#1) in the presence of 10 mM Mg2+ and […]
In each plot, the starting r value (≈ 0.20) corresponds to the typical value found at saturating concentrations of IN (see Fig. S6).
The INBI compound FZ41, a member of the styrylquinoline family of inhibitors, was used as a control […]
show mean ± SD values from two independent experiments. […]

D185N IN^PFV-DNA complex = molecular target: T4, D185N IN^PFV-DNA complex (Human spumaretrovirus, UniProt P14350, D936N); assay: Fluorescence enhancement DTG-binding assay, D185N catalytic mutant; parameters: species or system prototype foamy virus (PFV); details: 1 mM Mg2+
T4 construct: The pET-IN-PFV plasmid containing the full-length IN gene was used for mutagenesis; His; made in house; host or cells: E. coli BL21-CodonPlus (DE3)-RIPL
Method: as §1, §2, §3

D128N IN^PFV-DNA complex = molecular target: T5, D128N IN^PFV-DNA complex (Human spumaretrovirus, UniProt P14350, D879N/G968S/S969G); assay: Fluorescence enhancement DTG-binding assay, D128N catalytic mutant; parameters: species or system prototype foamy virus (PFV); details: 1 mM Mg2+
T5 construct: The pET-IN-PFV plasmid containing the full-length IN gene was used for mutagenesis; His; made in house; host or cells: E. coli BL21-CodonPlus (DE3)-RIPL
Method: as §1, §2, §3

S217K IN^PFV mutant = type: biochemical, prototype foamy virus (PFV); details: S217K versus wt, ST activity
Method: The graphs show representative data of three independent experiments. […] ST products were quantified as explained in the Methods section.
DNA#13 mimicking the 3′-processed end (Table 1) was radiolabeled with T4 polynucleotide kinase (NEB) and [γ-^32P]ATP (Amersham) and purified on a Sephadex G-10 column. The double-stranded DNA substrate was obtained by mixing equimolar amounts of ssDNA#13 with its 21-mer complementary strand in the presence of 100 mM NaCl. ST reactions were carried out at 37 °C with 200 or 300 nM IN in 20 mM HEPES pH 6.8, 1 mM DTT, 10 mM MgCl2 and 50 mM NaCl, in the presence of 12.5 nM DNA. After separation in a 16% acrylamide/urea denaturing gel, ST products were analyzed with a Typhoon TRIO variable mode imager (GE Healthcare) and quantified with ImageQuant TL software. ST activity was expressed as the % of the signal intensity of ST products divided by the signal intensity of the DNA substrate. […] IC50 values were determined using the Prism 5.0 software.

Q: For `C[C@@H]1CCO[C@H]2Cn3cc(C(=O)NCc4ccc(F)cc4F)c(=O)c(O)c3C(=O)N12` [DTG, dolutegravir], which “DTG binding to G187R by DTG anisotropy” value (G187R IN^PFV-DNA complex) is on record?
A: DTG-binding defects

Q: And the “DTG-binding (%) Fluorescence intensity procedure” value ([1]; DNA#1 (cognate))?
A: 100%

Q: What about the “DTG-binding (%) Fluorescence intensity procedure” value ([1]; DNA#2) of the same molecule?
A: 83 ± 5%

Q: And the “DTG-binding (%) Fluorescence intensity procedure” value ([1]; DNA#3)?
A: 89 ± 6%

Q: What about the “DTG-binding (%) Fluorescence intensity procedure” value ([1]; DNA#4) of the same molecule?
A: 84 ± 4%

Q: What about the “DTG-binding (%) Fluorescence intensity procedure” value ([1]; DNA#5) of the same molecule?
A: 101 ± 5%

Q: And the “DTG-binding (%) Fluorescence intensity procedure” value ([1]; DNA#6)?
A: 76 ± 5%

Q: What about the “DTG-binding (%) Fluorescence intensity procedure” value ([1]; DNA#7) of the same molecule?
A: 20 ± 3%

Q: And the “DTG-binding (%) Fluorescence intensity procedure” value ([1]; DNA#8)?
A: 7 ± 2%

Q: And the “DTG-binding (%) Fluorescence intensity procedure” value ([1]; DNA#9 (random sequence))?
A: 9 ± 2%

Q: And the “DTG-binding (%) Fluorescence intensity procedure” value ([1]; DNA#10)?
A: 23 ± 3%

Q: What about the “DTG-binding (%) Fluorescence intensity procedure” value ([1]; DNA#11) of the same molecule?
A: 24 ± 2%

Q: And the “DTG binding activity, % of the binding activity obtained with DNA#1” value ([1]; DNA#12 (CAAT-3′→CAGT-3′), both procedures (text summary of Table 1))?
A: 72–77%

Q: And the “DTG-binding (%) Fluorescence intensity procedure” value ([1]; DNA#12)?
A: 72 ± 6%

Q: What about the “DTG-binding (%) Fluorescence intensity procedure” value ([1]; DNA#13 (processed DNA product)) of the same molecule?
A: 66 ± 4%

Q: What about the “DTG binding activity, % of the binding activity obtained with DNA#1” value ([1]; IN in complex with DNA#2→6 (text summary of Table 1)) of the same molecule?
A: > 76%

Q: What about the “r value of Fl-DNA (IN-DNA complex) on increasing INSTI concentration” value [2] of the same molecule?
A: remained constant

Q: And the “DTG binding to D185N catalytic mutant” value (D185N IN^PFV-DNA complex)?
A: loss of DTG-binding

Q: What about the “DTG binding to D128N catalytic mutant” value (D128N IN^PFV-DNA complex) of the same molecule?
A: loss of DTG-binding

Q: And the “decrease in DTG susceptibility” value (S217K IN^PFV mutant)?
A: ≈ 50 fold
